For orientation: IC50 means the concentration needed to halve the response being measured. One may read the CC50 as the concentration giving 50% cytotoxicity. Low values mean harm at low concentration, high ones better tolerance by the cells. The melting point is the temperature of the solid-liquid transition.

Data on 31 molecules can be found in patent US7049332B2, “HIV inhibiting N-aminoimidazole derivatives” (K. U. Leuven Research & Development, priority 2001, dated 2006).

Values after ≈ are worked out from the molar mass of the structure shown.

One data set deals with HIV-2 (ROD). Nature of the data set: Inhibition of HIV-induced cytopathogenic effect in MT-4 cells (MTT), HIV-2. The format is cell-based. The settings on record: for IC50: Human immunodeficiency virus 2, MT4, 50% protection against HIV-induced cytopathogenic effect, MT-4 cells, MTT; for HIV-2 (ROD) SI: selectivity index = ratio of CC50 to IC50, HIV-2. How it is done:
(§1) A rapid and automated assay procedure was used for the in vitro evaluation of anti-HIV agents. An HTLV-1 transformed T4-cell line MT-4, which was previously shown to be highly susceptible to and permissive for HIV infection, served as the target cell line. Inhibition of the HIV-induced cytopathogenic effect was used as the end point. The viabitlity of both HIV-and mock-infected cells was assessed spectrophotometrically via in situ reduction of 3-(4,5-dimethylthiazol-2-yl)-2,5-diphenyltetrazolium bromide (MTT). The 50% cytotoxic concentration (CC50 in μg/ml) was defined as the concentration of compound that reduced the absorbance of the mock-infected control sample by 50%. The percent protection achieved by the compound in HIV-infected cells was calculated by the following formula:
(§2) [formula] whereby (ODT)HIV is the optical density measured with a given concentration of the test compound in HIV-infected cells; (ODC)HIV is the optical density measured for the control untreated HIV-infected cells; (ODC)MOCK is the optical density measured for the control untreated mock-infected cells; all optical density values were determined at 540 nm. The dose achieving 50% protection according to the above formula was defmed as the 50% inhibitory concentration (IC50 in μg/ml). The ratio of CC50 to IC50 was defined as the selectivity index (SI).
(§3) Cells: MT-4 cells (Miyoshi et al., 1982) were grown and maintained in RPMI 1640 medium supplemented with 10% heat-inactivated fetal calf serum, 2 mM 1-glutamine, 0.1% sodium bicarbonate, and 20 œg of gentamicin per ml.
(§4) Viruses: The HIV-1(NL4.3) strain (Adachi et al., 1986) is a molecular clone obtained from the National Institutes of Health (Bethesda, Md.). The HIV-2(ROD) (Barr,-Sinoussi et al., 1983) stock was obtained from culture supernatant of HIV-2 infected cell lines.
On the technique in general: Damage to the host cells serves as the signal in cytopathic effect assays.

A short description of data set [1]: Cytotoxicity in mock-infected MT-4 cells (MTT). The format is cell-based. The conditions noted are these: human; mock-infected MT-4 cells, absorbance reduced by 50%, MTT. The protocol: as §1, with “formula: Examples of inhibition of cell proliferation by particular compounds of formula (I) can be found by looking at the respective CC50 values in the MT-4 cell line. Cells: MT-4 cells (Miyoshi et al., 1982) were grown and maintained in RPMI 1640 medium supplemented with 10% heat-inactivated fetal calf serum, 2 mM […], 0.1% sodium bicarbonate, and 20 œg of gentamicin per ml.” for “formula:”

The next data set deals with HIV-1 (NL4.3 WT). Nature of the data set: Inhibition of HIV-induced cytopathogenic effect in MT-4 cells (MTT), HIV-1. The format is cell-based. The conditions noted are these: for IC50: Human immunodeficiency virus 1, MT4, 50% protection against HIV-induced cytopathogenic effect, MT-4 cells, MTT; for HIV-1 (NL4.3 WT) SI: selectivity index = ratio of CC50 to IC50, HIV-1. The protocol:
as §1, §2, §3, §4

In turn, `Cc1ccc(Nn2c(-c3ccccc3)c(C)[nH]c2=S)cc1Cl` [Compound 9.15, 1-(3-Chloro-4-methylphenylamino)-2,3-dihydro-4-methyl-5-phenyl-1H-imidazole-2-thione] yielded a melting point of 190 °C. In the data set with HIV-2 (ROD), the IC50 is more than 16.9 µg/mL and the “HIV-2 (ROD) SI” value is given as less than 1. In addition, the CC50 in data set [1] is 16.9 µg/mL (≈ 51.2 µM). Further, in the data set with HIV-1 (NL4.3 WT), the midpoint of inhibition, the IC50, lay at 3.6 µg/mL (≈ 10.9 µM) and the “HIV-1 (NL4.3 WT) SI” value was determined as 4.7.

Consider `CCc1[nH]c(=S)n(Nc2cccc(Cl)c2)c1-c1ccccc1` [Compound 9.24, 1-(3-Chlorophenylamino)-2,3-dihydro-4-ethyl-5-phenyl-1H-imidazole-2-thione], for which the melting point was 116 to 118 °C.

Molecule `Cc1ncn(Nc2cccc(Cl)c2)c1-c1cccc(Br)c1` [Compound 13.02, 5-(3-Bromophenyl)-1-(3-chlorophenylamino)-4-methyl-1H-imidazole] had a melting point of 164 °C. For the same molecule, in the data set with HIV-2 (ROD), the midpoint of inhibition, the IC50, lay at 0.3 µg/mL (≈ 0.827 µM) and the “HIV-2 (ROD) SI” value amounted to 9.5. The molecule further had a CC50 in data set [1] of 3.13 µg/mL (≈ 8.63 µM). In the data set on HIV-1 (NL4.3 WT), the IC50 was found to be 0.5 µg/mL (≈ 1.38 µM) and the “HIV-1 (NL4.3 WT) SI” value is on record as 6.7.

`S=c1[nH]c(-c2ccccc2)c(-c2ccccc2)n1Nc1cccc(Cl)c1` [Compound 9.26, 1-(3-Chlorophenylamino)-2,3-dihydro-4,5-diphenyl-1H-imidazole-2-thione] showed a melting point of 178 to 180 °C.

For the molecule `Cc1[nH]c(=S)n(Nc2cccc(Cl)c2)c1-c1cccc(Br)c1` [Compound 9.05, 5-(3-Bromophenyl)-1-(3-chlorophenylamino)-2,3-dihydro-4-methyl-1H-imidazole-2-thione], the melting point stood at 196 °C. For the same molecule, in the data set with HIV-2 (ROD), the 50% inhibitory concentration (IC50) was found to be 4.1 µg/mL (≈ 10.4 µM) and the “HIV-2 (ROD) SI” value is 5.5. Moreover, the half-maximal cytotoxic concentration (CC50) in data set [1] is 22.9 µg/mL (≈ 58 µM). Moreover, in the data set with HIV-1 (NL4.3 WT), the half-inhibitory concentration (IC50) came out at 2.2 µg/mL (≈ 5.57 µM) and the “HIV-1 (NL4.3 WT) SI” value came out at 10.4.

For the molecule `Cc1ncn(Nc2cccc(Cl)c2)c1-c1cccc(Cl)c1` [Compound 13.03, 5-(3-Chlorophenyl)-1-(3-chlorophenylamino)-4-methyl-1H-imidazole], the melting point turned out to be 168 °C. In addition, in the data set with HIV-2 (ROD), the IC50 stood at 0.23 µg/mL (≈ 0.723 µM) and the “HIV-2 (ROD) SI” value came to 63.8. In data set [1], this molecule gave a 50% cytotoxic concentration (CC50) of 14.7 µg/mL (≈ 46.2 µM). Also, in the data set on HIV-1 (NL4.3 WT), half-maximal inhibition (IC50) was put at 0.2 µg/mL (≈ 0.629 µM) and the “HIV-1 (NL4.3 WT) SI” value worked out at 73.5.

As for `Cc1ncn(Nc2ccccc2)c1C` [Compound 13.06, 4,5-Dimethyl-1-phenylamino-1H-imidazole], the melting point came to 178 °C.

The molecule `Clc1cccc(Nn2cnc3c2CCCC3)c1` [Compound 13.04, 1-(3-Chlorophenylamino)-4,5,6,7-tetrahydro-1H-benzimidazole] registered a melting point of 180 °C.

In turn, `COC(=O)c1c(C)[nH]c(=S)n1Nc1cccc(Cl)c1` [Compound 9.27, 1-(3-Chlorophenylamino)-2,3-dihydro-5-methoxycarbonyl-4-methyl-1H-imidazole-2-thione] gave a melting point of 194 to 196 °C.

`COc1cccc(Nn2cnc(C)c2-c2ccccc2)c1` [Compound 13.14, 1-(3-Methoxyphenylamino)-4-methyl-5-phenyl-1H-imidazole] displayed a melting point of 156 to 158 °C.

Consider `Cc1ncn(Nc2cccc(Cl)c2)c1C` [Compound 13.07, 1-(3-Chlorophenylamino)-4,5-dimethyl-1H-imidazole], for which the melting point stood at 146 °C.

In turn, `Cc1[nH]c(=S)n(Nc2cccc(Cl)c2)c1C(=O)O` [Compound 9.28, 1-(3-Chlorophenylamino)-2,3-dihydro-5-hydroxycarbonyl-4-methyl-1H-imidazole-2-thione] displayed a melting point of 166 to 168 °C.

In turn, `Cc1cccc(Nn2c(-c3ccccc3)c(C(C)C)[nH]c2=S)c1` [Compound 9.23, 2,3-Dihydro-4-isopropyl-1-(3-methylphenylamino)-5-phenyl-1H-imidazole-2-thione] returned a melting point of 220 to 222 °C.

On to `Cc1cccc(Nn2c(C)c(C)[nH]c2=S)c1` [Compound 9.22, 2,3-Dihydro-4,5-dimethyl-1-(3-methylphenylamino)-1H-imidazole-2-thione], for which the melting point amounted to 230 °C.

The molecule `COc1ccc(-c2c(C)[nH]c(=S)n2Nc2cccc(Cl)c2)cc1` [Compound 9.09, 2,3-Dihydro-1-(3-chlorophenylamino)-5-(4-methoxyphenyl)-4-methyl-1H-imidazole-2-thione] had a melting point of 226 °C.

On to `Cc1ncn(Nc2ccccc2)c1-c1ccccc1` [Compound 13.05, 4-Methyl-5-phenyl-1-phenylamino-1H-imidazole], for which the melting point fell in the range of 165 to 167 °C.

Regarding `Cc1[nH]c(=S)n(Nc2ccccc2)c1C` [Compound 9.21, 2,3-Dihydro-4,5-dimethyl-1-(phenylamino)-1H-imidazole-2-thione], the melting point was 217 to 219 °C.

Consider `Cc1[nH]c(=S)n(Nc2cccc(Cl)c2)c1C` [Compound 9.20, 2,3-Dihydro-4,5-dimethyl-1-(3-chlorophenylamino)-1H-imidazole-2-thione], for which the melting point worked out at 234 °C.

The molecule `CCc1ncn(Nc2cccc(C)c2)c1-c1ccccc1` [Compound 13.11, 4-Ethyl-1-(3-methylphenylamino)-5-phenyl-1H-imidazole] displayed a melting point of 158 to 160 °C.

The molecule `Cc1ncn(Nc2ccc(F)cc2)c1-c1ccccc1` [Compound 13.10, 1-(4-Fluorophenylamino)-4-methyl-5-phenyl-1H-imidazole] showed a melting point of 155 °C.

`Cc1[nH]c(=S)n(Nc2ccc(Cl)cc2)c1-c1ccccc1` [Compound 9.04, 1-(4-Chlorophenylamino)-2,3-dihydro-4-methyl-5-phenyl-1H-imidazole-2-thione] yielded a melting point of 212 to 214 °C.

The molecule `COC(=O)c1cccc(-c2c(C)[nH]c(=S)n2Nc2cccc(C)c2)c1` [Compound 9.35, 2,3-Dihydro-4-methyl-1-(3-methylphenylamino)-5-(3-methoxycarbonylphenyl)-1H-imidazole-2-thione] yielded a melting point of 164 to 166 °C.

On to `COC(=O)c1[nH]c(=S)n(Nc2cccc(Cl)c2)c1C` [Compound 9.29, 1-(3-Chlorophenylamino)-2,3-dihydro-4-methoxycarbonyl-5-methyl-1H-imidazole-2-thione], for which the melting point was in the range of 160 to 162 °C.

`CSc1nc(C)c(-c2ccccc2)n1Nc1cccc(Cl)c1` returned a melting point of 215 °C.

`Cc1[nH]c(=S)n(Nc2cccc(Cl)c2)c1-c1ccc(Cl)cc1` [Compound 9.08, 5-(4-Chlorophenyl)-1-(3-chlorophenylamino)-2,3-dihydro-4-methyl-1H-imidazole-2-thione]: the melting point stood at 225 °C.

In the case of `Cc1cccc(Nn2cnc(C)c2C)c1` [Compound 13.08, 4,5-Dimethyl-1-(3-methylphenylamino)-1H-imidazole], the melting point stood at 144 °C.

The molecule `Cc1c(-c2ccccc2)[nH]c(=S)n1Nc1cccc(Cl)c1` [Compound 9.10, 1-(3-Chlorophenylamino)-2,3-dihydro-5-methyl-4-phenyl-1H-imidazole-2-thione] returned a melting point of 238 °C.

The molecule `Cc1[nH]c(=S)n(Nc2ccc(F)cc2)c1-c1ccccc1` [Compound 9.03, 2,3-Dihydro-1-(4-fluorophenylamino)-4-methyl-5-phenyl-1H-imidazole-2-thione] came in with a melting point of 228 °C.

As for `Cc1cc(C)cc(Nn2cnc(C)c2-c2ccccc2)c1` [Compound 13.13, 1-(3,5-Dimethylphenylamino)-4-methyl-5-phenyl-1H-imidazole], the melting point was 154 to 156 °C.

For `Cc1cccc(Nn2cnc(C)c2-c2cccc(C#N)c2)c1` [Compound 13.16, 5-(3-Cyanophenyl)-4-methyl-1-(3-methylphenylamino)-1H-imidazole], the melting point lay within 138 to 140 °C.

`Cc1nc(SCc2ccccc2)n(Nc2cccc(Cl)c2)c1-c1ccccc1`: the melting point came to 130 °C.
